Data set [1] has as its system C. suis merozoites. Kind of data set: Merozoite replication (growth) inhibition in infected IPEC-1 cultures, free merozoites counted 9 dpi. Format: cell-based, Cystoisospora suis. Particulars: 400 nM once at 2 dpi; vs DMSO-only and no-treatment controls. How it is done: The laboratory strain C. suis Wien I ([Joachim and Mundt, 2011]), was maintained by passage in suckling piglets every 3–6 months and infectivity in vivo was assessed regularly at the Institute of Parasitology, University of Veterinary Medicine, Vienna. Oocysts were purified from collected feces, brought to sporulation and stored as described elsewhere ([Worliczek et al., 2013]). For in vitro studies, sporozoites were excysted ([Worliczek et al., 2013]), enumerated with a hemocytometer and used immediately for infection of semi-permanent intestinal porcine epithelial cells (IPEC-1). For in vivo studies, sporulated oocysts were washed with tap water and enumerated prior to infection of piglets.
IPEC-1 cells were maintained in culture medium at 37 °C and 5% CO2 (DHEM/HAM12 supplemented with 5% fetal calf serum and penicillin/streptomycin; Gibco via Thermo Fisher, Vienna, Austria). Cells (4 × 10^4) were used to seed 24-well plates and grown to confluence. All BKI compounds were stored as 20 mM stock solutions in 100% dimethyl sulfoxide (DMSO) at −20 °C. Cell viability in the presence of DMSO and BKIs was determined by colorimetric cell proliferation (WST-1) assays ([Shrestha et al., 2019]). In addition IPEC-1 cells were infected with serial dilutions of C. suis sporozoites, obtained after excystation to evaluate the growth curves of merozoites during 5–9 days of cultivation. To determine the effect of BKI 1369 on parasite replication, sporozoites (5 × 10^2) were added to each well one day after seeding of host cells and incubated with different concentrations of BKI 1369 at 40 °C for various time periods or a DMSO control, in triplicate.
In order to test whether BKI 1369 affects initial host cell invasion by C. suis, freshly excysted sporozoites were pre-incubated with BKI 1369 or DMSO for 6 h at 37 °C. Subsequently, sporozoites were washed with medium and used for infection of cell monolayers (5 × 10^2/well), in triplicate. Readout for both growth (merozoite replication) and invasion-inhibition experiments was microscopical evaluation by counting free merozoites 9 days post-infection (dpi) from culture supernatants. Supernatants were collected and free merozoites were counted in pooled samples at 9 dpi from quadruplicate wells in C-Chip disposable hemocytometers (NanoEnTek/Roth Lactan, Graz, Austria). All assays included DMSO and no-treatment controls in quadruplicate.
Statistical calculations for in vivo trials were performed with RStudio version 1.1.453 (RStudio Team, 2018), descriptive statistics with Microsoft Excel 2010 (Microsoft Inc., Vienna, Austria) and GraphPad Prism version 5.04 for Windows (GraphPad Software, San Diego, California USA). Differences in clinical and parasitological parameters between groups were analyzed with ANOVA in the case of normal distribution and variance homogeneity of the data, or a Kruskal-Wallis rank sum test if this was not the case. In the event of significance for the omnibus tests, parametric or non-parametric post-hoc tests for multiple comparisons were performed (according to Tukey and Conover, respectively), with P-value adjustment after Bonferroni. In vitro assays were evaluated by t-tests with significance reported at P < 0.05. For testing of efficacy in vitro, the percentage of growth/invasion inhibition was calculated as follows: % inhibition = (1−No. of merozoites counted at 9 dpi in BKI 1369 treated culture /No. of merozoites counted at 9 dpi in DMSO-only treated culture)x100

The nature of data set [2]: Fecal drug kinetics: BKI concentrations in pooled feces by LC-MS/MS. Type of data set: in vivo, piglets. On the procedure:
Additionally, to determine exposure to BKI 1369 and its metabolites, BKI 1318 and BKI 1817, pooled fecal samples per group were collected before treatment (−24 h), 2, 24 and 48 h after treatment and at the end of the study (SD 29; experiment I). Approximately 1 g of feces was soaked overnight in 3 ml phosphate buffered saline (PBS, pH 7.4). The following day, 12 ml of acetonitrile containing 100 μM propanolol as an internal standard was added and the mixture was thoroughly vortexed and centrifuged at 1000×g for 30 min. Clear supernatant was then transferred to Eppendorf tubes and concentrated in a miVac® Duo Concentrator (SP Scientific, Pennsylvania, USA) at 35 °C. Control/blank samples spiked with known amounts of target analyte were processed in tandem to provide a standard curve. The concentrated samples were shipped to the University of Washington and were stored at −20 °C until analysis by liquid chromatography-tandem mass spectrometry (LC-MS/MS) to determine fecal pharmacokinetics. All LC-MS/MS analyses were carried out on a Waters Acquity UPLC coupled with a Xevo TQS Micro and analyzed using MassLynx software (Waters Corporation, Milford, MA, USA). Extraction and LC-MS/MS conditions are described in detail in the Supplementary File S1.
Tissue and feces from vehicle control treated piglets were used as blanks or standards. Calibration curves for BKI 1369, BKI 1318, and BKI 1817 were prepared by adding 2 μL BKI in dimethylsulfoxide (DMSO) to 18 μL tissue or feces controls to generate nominal concentrations of 0.004, 0.008, 0.02, 0.04, 0.08, 0.2, 0.4, 0.8, 2, 5, 10, and 20 μM. Calibration curves were generated separately for each tissue type and feces.
5 μL of tissue homogenate curves and samples were added to tubes that contained 95 μL of 80:20 acetonitrile: water. As an internal standard, propranolol was added to each sample to a final concentration of 20 nM. Samples were dried to completion using a miVac Duo Concentrator (SP Scientific, Pennsylvania, USA) at 35 °C. Sample processing for feces was similar but utilized a slightly different process to concentrate the sample as explained in the methods. Dried Samples were sealed and shipped to the University of Washington for LC-MS/MS analysis.

The source of these data is article PMC7442133, “Reduced treatment frequencies with bumped kinase inhibitor 1369 are effective against porcine cystoisosporosis” (International Journal for Parasitology: Drugs and Drug …, 2020).

Each structure is given as a SMILES string.

Regarding `CN1CCC(Cn2nc(-c3ccc4nc(O)ccc4c3)c3c(N)ncnc32)CC1` [BKI 1817], in data set [1], the “Decrease of total merozoite counts” value came out at 69.6%. For the same compound, the “Concentration in pooled fecal samples” value came to 0.0 µM in data set [2] (Group A (20 mg BKI 1369/kg BW; 0 dpi), SD 2, −24 h (before treatment)); 0.0 µM in data set [2] (Group A (20 mg BKI 1369/kg BW; 0 dpi), SD 3, 2 h post first-dose); 54.0 µM in data set [2] (Group A (20 mg BKI 1369/kg BW; 0 dpi), SD 4, 24 h post first-dose); 60.8 µM in data set [2] (Group A (20 mg BKI 1369/kg BW; 0 dpi), SD 5, 48 h post first-dose); 0.0 µM in data set [2] (Group A (20 mg BKI 1369/kg BW; 0 dpi), SD 29, 624 h post first-dose); 0.0 µM in data set [2] (Group B (20 mg BKI 1369/kg BW; 2 dpi), SD 4, −24 h (before treatment)). For the same compound, the “Concentration in pooled fecal samples” value in data set [2] (Group B (20 mg BKI 1369/kg BW; 2 dpi), SD 5, 2 h post first-dose) came out at 0.0 µM; in data set [2] (Group B (20 mg BKI 1369/kg BW; 2 dpi), SD 6, 24 h post first-dose) it was 0.8 µM; in data set [2] (Group B (20 mg BKI 1369/kg BW; 2 dpi), SD 7, 48 h post first-dose), 53.5 µM; in data set [2] (Group B (20 mg BKI 1369/kg BW; 2 dpi), SD 29, 576 h post first-dose) it was 0.0 µM; in data set [2] (Group C (20 mg BKI 1369/kg BW; 2 and 4 dpi), SD 4, −24 h (before treatment)), 0.0 µM; in data set [2] (Group C (20 mg BKI 1369/kg BW; 2 and 4 dpi), SD 5, 2 h post first-dose), 0.0 µM. The “Concentration in pooled fecal samples” value in data set [2] (Group C (20 mg BKI 1369/kg BW; 2 and 4 dpi), SD 6, 24 h post first-dose) worked out at 130.0 µM; in data set [2] (Group C (20 mg BKI 1369/kg BW; 2 and 4 dpi), SD 7, 48/2 h post 2nd dose) it was 280.8 µM; in data set [2] (Group C (20 mg BKI 1369/kg BW; 2 and 4 dpi), SD 8, 72/24 h post 2nd dose), 331.6 µM; in data set [2] (Group C (20 mg BKI 1369/kg BW; 2 and 4 dpi), SD 9, 96/48 h post 2nd dose) it was 537.0 µM. The highest concentration (Cmax) – broadly, the highest concentration seen after dosing – came out at 60.8 µM in data set [2] (Group A: single treatment 20 mg BKI 1369/kg on SD 3, pooled feces); 537 µM in data set [2] (Group C: 20 mg BKI 1369/kg on SD 5 and SD 7, pooled feces). Besides, the “Fecal Tmax” value in data set [2] (Group A: single treatment 20 mg BKI 1369/kg on SD 3, pooled feces, post dose) is listed as 48 h; in data set [2] (Group B: single treatment 20 mg BKI 1369/kg on SD 5, pooled feces, post-dose) it was 48 h; in data set [2] (Group C: 20 mg BKI 1369/kg on SD 5 and SD 7, pooled feces, post first-dose), 96 h. Also, the “Excretion via the feces (in words)” value in data set [2] (after oral BKI 1369, piglets) is “major metabolite excreted in the feces”.
